“Also recorded” adds a separate entry of the source.
Tested on: women with ER+ HER2- advanced breast cancer
Assay: Phase 1 clinical trial: safety and tolerability (AEs, DLTs)
Type: in vivo
Protocol: “Grade 4 or 5 adverse events” can be classified according to the common terminology criteria for adverse events (CTCAE).
Dose Limiting Toxicity (DLT): a DLT is defined as an AE or abnormal laboratory value that occurs from the first dose of AZD9833 up to and including Day 28, Cycle 1 (the DLT period) that is assessed as unrelated to disease progression, intercurrent illness, or concomitant medications and that, despite optimal therapeutic intervention, meets any of the following criteria: • (a) Any death not clearly due to the underlying disease or extraneous causes • (b) Haematological toxicities as follows (CTCAE): • (i) Any >Grade 4 haematological toxicity present for more than 4 consecutive days, or requiring blood transfusions, G-CSF, or erythropoietins. • (ii)>Grade 3 neutropenia of any duration accompanied with fever ≥38.5° C. and/or systemic infection. • (iii)>Grade 3 thrombocytopenia of any duration with bleeding. • (iv) Grade 4 thrombocytopenia (regardless of duration or bleeding) • (c) Any non-haematological toxicity CTCAE >Grade 3 but with the following conditional stipulations: • (i) Nausea >CTCAE Grade 3 for more than 3 consecutive days despite administration of maximal anti-emetic therapy. • (ii) Vomiting >CTCAE Grade 3 for more than 3 consecutive days despite administration of maximal anti-emetic therapy. • (iii) Vomiting >CTCAE Grade 4 (regardless of duration) • (iv) Diarrhoea >CTCAE Grade 3 for more than 3 consecutive days despite administration of maximal anti-diarrheal therapy. • (v) Diarrhoea ≥ CTCAE Grade 4 (regardless of duration) • (vi) CTCAE Grade ≥3 fatigue that persists for more than 4 days. • (vii) CTCAE Grade ≥3 increase in creatinine. • (d) Other toxicity: • (i) QTcF value >500 ms or QTcF prolongation from baseline by 60 ms and >480 ms confirmed on at least 2 separate ECGs. • (ii)>CTCAE Grade 4 electrocardiogram QT corrected interval prolongation. • (iii) An increase in serum/plasma AST or ALT ≥3×ULN and concurrent TBL ≥2 ULN. • (e) Any other toxicity that: • (i) Is greater than at baseline and is clinically significant and/or unacceptable despite optimal therapeutic intervention, and is judged to be a DLT by the SRC, or • (ii) Results in a disruption of the dosing schedule of more than 14 days despite optimal therapeutic intervention.
Safety and Clinical Assessments: The safety and tolerability of AZD9833 is the primary objective of this study. Related outcome measures are DLTs, AEs/SAEs, vital signs, clinical chemistry/haematology, and ECGs.
Clinical Safety Laboratory Assessments: Clinical chemistry, haematology, and urinalysis and coagulation will be performed at a local laboratory at or near to the investigator study site. Sample tubes and sample sizes may vary depending on laboratory method used and routine practice at the study site.
A clinical trial according to the above protocol was carried out using 60 patients.

## C[C@@H]1Cc2c(ccc3[nH]ncc23)[C@@H](c2ccc(NC3CN(CCCF)C3)cn2)N1CC(F)(F)F [AZD9833, N-(1-(3-fluoropropyl)azetidin-3-yl)-6-((6S,8R)-8-methyl-7-(2,2,2-trifluoroethyl)-6,7,8,9-tetrahydro-3H-pyrazolo[4,3-f]isoquinolin-6-yl) pyridin-3-amine]
300 mg
  DLT observed: G3 QTcF prolongation
450 mg
  DLT observed: G3 vomiting; also recorded: a combination of G2 visual disturbance, G2 headache and G2 gait disturbance
60 patients, all doses
  G4 or 5 AEs: No G4 or 5 AEs were reported
  Treatment-related AE: asthenia, patients affected: 10%
  Treatment-related AE: bradycardia/sinus bradycardia, patients affected: 45%
  Treatment-related AE: dizziness, patients affected: 10%
  Treatment-related AE: fatigue, patients affected: 13%
  Treatment-related AE: nausea, patients affected: 18%
  Treatment-related AE: visual disturbances, patients affected: 53%
  Treatment-related AE: vomiting, patients affected: 10%
  clinical relevance of observed AEs: None of the observed AEs were deemed to be clinically relevant
Of 60 patients, all doses
  patients who experienced DLTs: Three
Of affected patients, grade 1
  asthenia, share G1: 67%
  bradycardia/sinus bradycardia, share G1: 93%
  dizziness, share G1: 83%
  fatigue, share G1: 38%
  nausea, share G1: 46%
  visual disturbances, share G1: 91%
  vomiting, share G1: 50%
Of affected patients, grade 2
  asthenia, share G2: 33%
  bradycardia/sinus bradycardia, share G2: 7%
  fatigue, share G2: 63%
  nausea, share G2: 55%
  visual disturbances, share G2: 6%
  vomiting, share G2: 33%
Of affected patients, grade 3
  dizziness, share G3: 17%
  visual disturbances, share G3: 3%
  vomiting, share G3: 17%

Source: US12364689B2, “Dosage regimen for the treatment of cancer” (AstraZeneca AB, priority 2020, dated 2025)
